Results: ChEMBL document CHEMBL5380774, “Fragment-to-Lead Medicinal Chemistry Publications in 2021” (J Med Chem, 2023)
Each block holds one molecule with its values, some of them ahead of it.

Assays:
[1] = molecular target: T1, Muscarinic acetylcholine receptor M1 (Homo sapiens, UniProt P11229); test: Agonist activity at human M1 receptor; format: functional
T1 sequence (P11229 whole entry): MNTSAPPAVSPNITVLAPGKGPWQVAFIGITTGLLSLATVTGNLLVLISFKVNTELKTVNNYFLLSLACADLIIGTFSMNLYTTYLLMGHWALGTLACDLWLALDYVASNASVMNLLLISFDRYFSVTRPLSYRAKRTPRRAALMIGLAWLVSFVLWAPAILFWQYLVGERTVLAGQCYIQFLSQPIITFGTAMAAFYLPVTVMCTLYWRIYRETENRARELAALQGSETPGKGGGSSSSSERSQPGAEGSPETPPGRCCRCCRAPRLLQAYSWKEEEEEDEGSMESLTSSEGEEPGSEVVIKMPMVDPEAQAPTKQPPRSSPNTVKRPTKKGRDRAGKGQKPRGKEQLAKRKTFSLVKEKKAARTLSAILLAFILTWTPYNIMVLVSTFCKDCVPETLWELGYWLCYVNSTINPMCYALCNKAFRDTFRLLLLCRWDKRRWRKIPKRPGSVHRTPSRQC

[2] = molecular target: YEATS domain-containing protein 4 (Homo sapiens, UniProt O95619); test: Inhibition of human N-terminal GST tagged GAS41 (1 to 148 residues) incubated for 1 hr by fluorescence polarization assay
YEATS domain-containing protein 4, sequence (O95619 whole entry, the tested form may be a part): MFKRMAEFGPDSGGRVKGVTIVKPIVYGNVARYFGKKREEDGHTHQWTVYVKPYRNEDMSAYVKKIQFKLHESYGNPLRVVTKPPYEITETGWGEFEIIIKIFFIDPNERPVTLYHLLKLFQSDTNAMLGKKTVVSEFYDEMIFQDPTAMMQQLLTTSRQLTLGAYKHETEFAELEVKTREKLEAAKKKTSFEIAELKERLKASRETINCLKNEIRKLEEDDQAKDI

[3] = molecular target: T2, Histone-lysine N-methyltransferase ASH1L (Homo sapiens, UniProt Q9NR48); test: Binding affinity to ASH1L SET domain (2069 to 2288 residues) (unknown origin) assessed as dissociation constant by ITC analysis
Adenosine receptor A1 = molecular target: T3, Adenosine receptor A1 (Homo sapiens, UniProt P30542); test: Binding affinity to human A1AR assessed as inhibition constant
T3 sequence (P30542 whole entry): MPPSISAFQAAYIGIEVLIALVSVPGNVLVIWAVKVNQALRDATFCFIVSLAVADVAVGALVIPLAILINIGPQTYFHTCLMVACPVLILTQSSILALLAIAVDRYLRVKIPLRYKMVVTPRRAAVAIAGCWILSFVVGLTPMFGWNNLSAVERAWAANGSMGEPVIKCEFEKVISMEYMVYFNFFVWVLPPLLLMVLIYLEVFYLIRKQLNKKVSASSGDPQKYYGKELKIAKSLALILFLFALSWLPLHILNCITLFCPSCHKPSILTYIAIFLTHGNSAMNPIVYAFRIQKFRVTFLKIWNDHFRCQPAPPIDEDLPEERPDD

[4] = molecular target: T2, Histone-lysine N-methyltransferase ASH1L; test: Inhibition of N-terminal Mocr-tagged ASH1L (2069 to 2288 residues) (unknown origin) expressed in Escherichia coli BL21 (DE3) by […]
[5] = molecular target: Proto-oncogene tyrosine-protein kinase receptor Ret (Homo sapiens, UniProt P07949); test: Inhibition of rearranged during transfection kinase (unknown origin)
Proto-oncogene tyrosine-protein kinase receptor Ret, sequence (P07949 whole entry): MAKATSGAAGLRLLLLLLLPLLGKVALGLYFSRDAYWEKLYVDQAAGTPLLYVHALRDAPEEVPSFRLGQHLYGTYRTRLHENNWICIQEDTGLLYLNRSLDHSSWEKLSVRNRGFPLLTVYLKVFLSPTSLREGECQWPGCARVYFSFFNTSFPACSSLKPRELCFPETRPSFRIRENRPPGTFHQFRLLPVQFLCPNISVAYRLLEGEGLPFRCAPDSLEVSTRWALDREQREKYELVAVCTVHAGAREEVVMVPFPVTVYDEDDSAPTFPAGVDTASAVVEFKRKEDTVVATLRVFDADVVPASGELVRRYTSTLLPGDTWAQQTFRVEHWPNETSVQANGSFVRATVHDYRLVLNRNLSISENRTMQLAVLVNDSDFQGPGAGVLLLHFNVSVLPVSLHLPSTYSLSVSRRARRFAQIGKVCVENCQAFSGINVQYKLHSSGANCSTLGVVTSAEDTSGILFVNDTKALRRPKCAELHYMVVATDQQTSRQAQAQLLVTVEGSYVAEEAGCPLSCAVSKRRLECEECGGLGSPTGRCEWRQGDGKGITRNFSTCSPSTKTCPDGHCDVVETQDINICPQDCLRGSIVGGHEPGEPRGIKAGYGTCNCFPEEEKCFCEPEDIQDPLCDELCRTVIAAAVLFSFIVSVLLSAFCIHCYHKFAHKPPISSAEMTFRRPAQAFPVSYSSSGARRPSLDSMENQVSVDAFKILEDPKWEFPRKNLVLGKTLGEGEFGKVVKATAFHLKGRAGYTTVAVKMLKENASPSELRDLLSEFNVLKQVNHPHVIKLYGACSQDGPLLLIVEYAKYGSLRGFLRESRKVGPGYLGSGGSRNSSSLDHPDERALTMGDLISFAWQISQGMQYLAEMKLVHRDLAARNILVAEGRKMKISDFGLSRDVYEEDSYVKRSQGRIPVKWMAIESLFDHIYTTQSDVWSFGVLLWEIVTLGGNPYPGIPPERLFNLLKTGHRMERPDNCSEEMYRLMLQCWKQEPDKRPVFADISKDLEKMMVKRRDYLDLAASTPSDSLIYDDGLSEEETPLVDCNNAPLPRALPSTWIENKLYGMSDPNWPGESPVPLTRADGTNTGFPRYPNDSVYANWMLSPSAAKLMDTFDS

- EC50 [1]: 3.2 µM
Compound: CCOC(=O)N1CCC(N2CCC(C(N)=O)CC2)CC1

- IC50 [2]: 0.096 µM
Compound: O=C(Nc1ccc(C(=O)N2CC(c3nc4ccccc4s3)C2)s1)[C@@H]1C[C@@H](OCCCCCO[C@H]2CN[C@H](C(=O)Nc3ccc(C(=O)N4CC(c5nc6ccccc6s5)C4)s3)C2)CN1

- Kd [3]: > 1000 µM
Compound: NC(=S)c1cccc(-n2cccc2)c1

- Ki (Adenosine receptor A1): 11 µM
Compound: CC(=O)Nc1nc2ccccc2s1

- IC50 [4]: 0.79 µM
Compound: CN1CC(C(=O)NCc2ccc3c(-c4cccc(C(N)=S)c4)cn(C4CCC(S(=O)(=O)C(F)(F)F)CC4)c3c2)C1 (stereo unspecified)

- IC50 [5]: 9.2 µM
Compound: Nc1ncnc2[nH]ncc12
